Measurements published in patent EP2289882A1, “3-oxopiperazinium derivatives as agonists of nerve growth factor and their use as medicaments” (Institut d'Investigacions Biomédiques August PI I Sunyer, priority 2009, dated 2011).

Columns and labels:
[1] = system: PC12 cells; experiment: PC12 cell differentiation (neurite outgrowth); type: cell-based; details: 3 days, 2 ng/ml to 50 µg/ml, reduced serum (0.5% FBS and 1% HS); compared with NGF 100 ng/ml
Description: PC 12 cell differentiation was measured by plating cells onto collagen-coated 24-wells plates. NGF (100 ng/ml) or the small chemicals at different concentrations were added and the percentage of cells with neurite processes greater than two cell bodies in length were counted after relevant treatment. For each experiment at least 300 cells were randomly measured (Burstein and Greene, 1978). Cell culture. PC12 cells were maintained at 37°C in DMEM supplemented with 2.5% FBS, 15% of Horse serum (HS) and penicillin/streptomycin in a humidified 5% CO2 incubator. The cells were grown on 60-and 100-mm tissue culture dishes (Becton Dickinson). PC 12 cells were cultured for 3 days in the presence of the peptoids (from 2 ng/ml to 50 µg/ml) under reduced serum conditions (0.5% FBS and 1% HS).

[2] = system: RN22 cells; experiment: RN22 cell survival assay under CuSO4 stress (MTT); type: cell-based, rat; details: CuSO4 150 µM stress, 1 ng/ml - 10 µg/ml, 24 h; RN22 expresses p75 but not TrkA
Description: Compounds identified from the initial library screening were also tested to assess their capacity to promote cell survival. To delineate p75 signalling independent of TrkA, we used a rat schwannoma cell line (RN22) expressing p75, but not TrkA, (Gentry et al., 2000). Cell culture. The rat schawnnoma cell line RN22 was cultured in 5% CO2 at 37°C in Dulbecco's modified Eagle's medium (DMEM) with 10% fetal bovine serum (FBS) and penicillin/streptomycin. RN22 cells were plated at 20,000 cells/well on a 24-well plate in DMEM alone and after allowing the cells to adhere for 3 days, cupper sulphate (CuSO4) (150 µM) was added with or without NGF (100 ng/ml) or the peptidomimetic molecules A26-23, A26-24 and A28-A6 at different concentrations (1 ng/ml - 10 µg/ml) to generate stress and cell death. After 24 h cell viability was studied by determining the amount of yellow MTT (Sigma) that was reduced to insoluble purple formazan. After removing the medium, the water-insoluble formazan was solubilised with DMSO (Sigma), and the dissolved material was measured spectrophotometrically at a wavelength of 570 nm, subtracting the background at 650 nm (Frade, 2005).

Compound | differentiation of PC12 cells (percentage of cells with neurite processes greater than two cell bodies in length) [1] | survival of RN22 cells (cell viability, MTT) [2]
C[N+]1(C)CCN(CC(=O)NCCc2ccc([N+](=O)[O-])cc2)C(=O)C1.[Cl-] [A26-23, 1,1-dimethyl-4-[2-(4-nitrophenethylamino) -2-oxoethyl] -3-oxopiperazinium chloride] | induce the differentiation of PC12 cells at different concentrations to an extent substantially comparable with that induce by NGF | not to promote survival of RN22 cells
C[N+]1(Cc2ccccc2)CCN(CC(=O)NCCc2ccc([N+](=O)[O-])cc2)C(=O)C1.[Cl-] (stereo not drawn) [A26-64, 1-benzyl-1-methyl-4-[2-(4-nitrophenethylamino)-2-oxoethyl]-3-oxopiperazinium chloride] | induce the differentiation of PC12 cells at different concentrations to an extent substantially comparable with that induce by NGF | not to promote survival of RN22 cells
8-[2-(2-(5-methyl-1H-indol-2-yl)ethylamino)-2-oxoethyl]-7-oxo-8-aza-5-azoniaspiro[4.5]decane [A28-A6] | induce the differentiation of PC12 cells at different concentrations to an extent substantially comparable with that induce by NGF | not to promote survival of RN22 cells
